Results taken from patent publication US8580811B2 (Ligand Pharmaceuticals Incorporated, priority 2005, dated 2013).

Molecular target: T1, human AR (Homo sapiens, UniProt P10275)
T1 construct: expressed in transfected cells; host or cells: COS-1 cells
T1 sequence (P10275 1-920): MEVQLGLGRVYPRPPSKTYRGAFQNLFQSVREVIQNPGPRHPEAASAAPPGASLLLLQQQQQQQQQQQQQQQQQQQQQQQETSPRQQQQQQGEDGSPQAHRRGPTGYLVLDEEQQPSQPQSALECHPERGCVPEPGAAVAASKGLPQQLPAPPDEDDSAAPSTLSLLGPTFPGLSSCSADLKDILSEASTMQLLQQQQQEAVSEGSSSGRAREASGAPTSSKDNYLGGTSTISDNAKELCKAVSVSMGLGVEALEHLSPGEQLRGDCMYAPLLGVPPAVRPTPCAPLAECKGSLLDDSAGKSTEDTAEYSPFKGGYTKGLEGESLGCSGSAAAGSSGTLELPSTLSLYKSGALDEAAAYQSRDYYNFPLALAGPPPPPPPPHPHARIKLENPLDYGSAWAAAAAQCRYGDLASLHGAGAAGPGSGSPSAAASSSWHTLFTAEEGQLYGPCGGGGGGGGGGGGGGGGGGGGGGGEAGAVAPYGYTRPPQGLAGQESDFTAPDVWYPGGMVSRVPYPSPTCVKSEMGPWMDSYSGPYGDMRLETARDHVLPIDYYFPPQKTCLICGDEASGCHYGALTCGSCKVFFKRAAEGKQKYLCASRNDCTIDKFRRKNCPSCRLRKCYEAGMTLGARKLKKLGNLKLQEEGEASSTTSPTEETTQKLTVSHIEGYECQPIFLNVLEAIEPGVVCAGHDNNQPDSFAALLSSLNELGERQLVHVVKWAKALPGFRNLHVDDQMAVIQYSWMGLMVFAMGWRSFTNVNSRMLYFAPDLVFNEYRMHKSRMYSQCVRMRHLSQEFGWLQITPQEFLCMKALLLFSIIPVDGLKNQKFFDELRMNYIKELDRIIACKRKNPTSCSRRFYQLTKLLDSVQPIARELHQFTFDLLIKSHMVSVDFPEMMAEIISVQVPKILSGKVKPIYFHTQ
Experiment: IR Binding Assay: whole cell competitive binding of test compounds against 3H-DHT in COS-1 cells transfected with pRShAR
Description: For the whole cell binding assay, COS-1 cells in 96-well microtiter plates including DMEM-10% FBS were transfected as described above with the following plasmid DNA: pRShAR (2 ng/well), pRS-β-Gal (50 ng/well) and pGEM (48 ng/well). Six hours after transfection, media was removed, the cells were washed with PBS and fresh media was added. The next day, the media was changed to DMEM-serum free to remove any endogenous ligand that might be complexed with the receptor in the cells.
After 24 hours in serum-free media, either a saturation analysis to determine the Kd for tritiated dihydrotestosterone (^3H-DHT) on human AR or a competitive binding assay to evaluate the ability of test compounds to compete with ^3H-DHT for AR was performed. […] For the competitive binding assay, media including 1 nM ^3H-DHT and test compounds in concentrations ranging from 10^−10 to 10^−6 M were added to the cells. Three replicates were used for each sample. After three hours at 37° C., an aliquot of the total binding media at each concentration of ^3H-DHT was removed to estimate the amount of free ^3H-DHT. The remaining media was removed, the cells were washed three times with PBS to remove unbound ligand, and cells were lysed with a Triton X-100-based buffer. The lysates were assayed for amount of bound ^3H-DHT and β-Gal activity using a scintillation counter or spectrophotometer, respectively.
For the saturation analyses, the difference between the total binding and the nonspecific binding, normalized by the β-Gal rate, was defined as specific binding. The specific binding was evaluated by Scatchard analysis to determine the Kd for ^3H-DHT. See e.g., D. Rodbard, “Mathematics and statistics of ligand assays: an illustrated guide” In: J. Langon and J. J. Clapp, eds., Ligand Assay, Masson Publishing U.S.A., Inc., New York, pp. 45-99, (1981), the disclosure of which is herein incorporated by reference. For the competition studies, the data was plotted as the amount of ^3H-DHT (% of control in the absence of test compound) remaining over the range of the dose-response curve for a given compound. […] The Ki values were determined by application of the Cheng-Prusoff equation to the IC50 values, where:
[formula] After correcting for non-specific binding, IC50 values were determined. […] The IC50 value was determined graphically from a log-logit plot of the data. The Ki values were determined by application of the Cheng-Prusoff equation to the IC50 values, the labeled ligand concentration and the Kd of the labeled ligand. see e.g., Cheng, Y. C. and Prusoff, W. H. Biochem. Pharmacol. 22:3099 (1973).

`CC1c2c(ccc3[nH]c(=O)cc(Cl)c23)N(CC(F)(F)F)C1c1cccs1` (racemic) [Compound 161, (±)-9-Chloro-1-methyl-2-(thien-2-yl)-3-(2,2,2-trifluoroethyl)-1,2,3,6-tetrahydro-pyrrolo[3,2-f]quinolin-7-one] and `CC1c2c(ccc3[nH]c(=O)cc(Cl)c23)N(CC(F)(F)Cl)C1C` (racemic) [Compound 138, (±)-9-Chloro-3-(2-chloro-2,2-difluoro-ethyl)-1,2-dimethyl-1,2,3,6-tetrahydro-pyrrolo[3,2-f]-quinolin-7-one] cannot be ordered by Ki: less than 5 nM for the first, less than 5 nM for the second.

Compared with `Cc1cn(CC(F)(F)F)c2ccc3[nH]c(=O)cc(Cl)c3c12` [Compound 211, 9-Chloro-1-methyl-3-(2,2,2-trifluoroethyl)-3,6-dihydro-pyrrolo[3,2-f]quinolin-7-one], `CCc1c(C)c2c3c(Cl)cc(=O)[nH]c3ccc2n1CC(F)(F)C(F)(F)F` [Compound 223, 9-Chloro-2-ethyl-1-methyl-3-(2,2,3,3,3-pentafluoropropyl)-3,6-dihydro-pyrrolo[3,2-f]-quinolin-7-one] is lower in Ki: 5 to 10 nM for the first, less than 5 nM for the second.

`C=C(C)Cn1c(C)c(C)c2c3c(C(F)(F)F)cc(=O)[nH]c3ccc21` [Compound 237, 1,2-Dimethyl-3-(2-methyl-allyl)-9-trifluoromethyl-3,6-dihydro-pyrrolo[3,2-f]quinolin-7-one] and `Cc1c(C)n(CCCF)c2ccc3[nH]c(=O)cc(C(F)(F)F)c3c12` [Compound 248, 1,2-Dimethyl-3-(3-fluoropropyl)-9-trifluoromethyl-3,6-dihydro-pyrrolo[3,2-f]quinolin-7-one] cannot be ordered by Ki: less than 5 nM for the first, less than 5 nM for the second.

First: Cc1c(-c2ccco2)n(CC(F)(F)C(F)(F)F)c2ccc3[nH]c(=O)cc(Cl)c3c12 [Compound 261, 9-Chloro-1-methyl-2-(2-furyl)-3-(2,2,3,3,3-pentafluoropropyl)-3,6-dihydro-pyrrolo[3,2-f]quinolin-7-one]
Second: Cc1c(C)n(CC(F)(F)C(F)(F)C(F)(F)F)c2ccc3[nH]c(=O)cc(Cl)c3c12 [Compound 214, 9-Chloro-1,2-dimethyl-3-(2,2,3,3,4,4,4-heptafluorobutyl)-3,6-dihydro-pyrrolo[3,2-f]-quinolin-7-one]
The Ki of the first is lower: less than 5 nM for the first, greater than 10 nM for the second. The first binds more tightly here.

First: CCC1C(C)c2c(ccc3[nH]c(=O)cc(Cl)c23)N1CC (racemic) [Compound 166, (±)-9-Chloro-2,3-diethyl-1-methyl-1,2,3,6-tetrahydro-pyrrolo[3,2-f]quinolin-7-one]
Second: CC1c2c(ccc3[nH]c(=O)cc(C(F)(F)F)c23)N(CCCC(F)(F)F)C1C (racemic) [Compound 182, (±)-1,2-Dimethyl-3-(4,4,4-trifluorobutyl)-9-trifluoromethyl-1,2,3,6-tetrahydro-pyrrolo[3,2-f]quinolin-7-one]
The Ki of the first is higher: greater than 10 nM for the first, less than 5 nM for the second.

First: Cc1c(C)n(CC(O)CO)c2ccc3[nH]c(=O)cc(Cl)c3c12 (centres unmarked) [Compound 290, 9-Chloro-3-(2,3-dihydroxypropyl)-1,2-dimethyl-3,6-dihydro-pyrrolo[3,2-f]-quinolin-7-one]
Second: CCc1c(C)c2c3c(Cl)cc(=O)[nH]c3ccc2n1C[C@@H](O)C(F)(F)F [Compound 281, (R)-9-Chloro-2-ethyl-1-methyl-3-(3,3,3-trifluoro-2-hydroxy-propyl)-3,6-dihydro-pyrrolo[3,2-f]quinolin-7-one]
The Ki of the first is higher: greater than 10 nM for the first, less than 5 nM for the second.

First: CCc1c(C)c2c3c(C(F)(F)F)cc(=O)[nH]c3ccc2n1CC(F)(F)Cl [Compound 224, 3-(2-Chloro-2,2-difluoroethyl)-2-ethyl-1-methyl-9-trifluoromethyl-3,6-dihydro-pyrrolo[3,2-f]-quinolin-7-one]
Second: Cc1c(-c2ccccn2)n(C[C@H](O)C(F)(F)F)c2ccc3[nH]c(=O)cc(Cl)c3c12 [Compound 275, (S)-9-Chloro-1-methyl-2-(2-pyridyl)-3-(3,3,3-trifluoro-2-hydroxy-propyl)-3,6-dihydro-pyrrolo[3,2-f]quinolin-7-one]
The Ki of the first is lower: less than 5 nM for the first, 5 to 10 nM for the second.
